According to article PMC5322520, “TubZ filament assembly dynamics requires the flexible C-terminal tail” (Scientific Reports, 2017):

Columns and labels:
CbTubZ316 = molecular target: T1, CbTubZ316 (Clostridium phage c-st, UniProt Q331T7); conditions: nucleotide-binding pocket; crystals at pH 5.5, 22 °C
T1 construct: gene tubZ

BtTubZ = molecular target: T2, BtTubZ (Bacillus thuringiensis, UniProt Q8KNP3); assay: HPLC of polymer-bound nucleotide; format: biochemical
T2 construct: gene tubZ; construct not described in main text; filaments
T2 sequence (Q8KNP3 whole entry): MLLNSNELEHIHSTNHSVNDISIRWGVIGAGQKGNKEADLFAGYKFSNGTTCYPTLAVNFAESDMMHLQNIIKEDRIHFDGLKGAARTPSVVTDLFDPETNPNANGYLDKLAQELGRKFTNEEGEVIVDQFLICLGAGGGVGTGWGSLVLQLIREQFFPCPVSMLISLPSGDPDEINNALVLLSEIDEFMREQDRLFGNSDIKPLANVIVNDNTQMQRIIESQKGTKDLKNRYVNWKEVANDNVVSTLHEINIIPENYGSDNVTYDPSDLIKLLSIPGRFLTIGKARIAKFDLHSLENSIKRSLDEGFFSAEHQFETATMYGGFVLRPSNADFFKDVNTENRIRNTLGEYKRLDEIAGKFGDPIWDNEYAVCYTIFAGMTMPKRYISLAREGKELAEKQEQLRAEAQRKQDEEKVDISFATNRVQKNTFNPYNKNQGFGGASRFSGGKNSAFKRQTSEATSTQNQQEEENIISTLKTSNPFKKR

T1 sequence (Q331T7 1-316 limits assumed): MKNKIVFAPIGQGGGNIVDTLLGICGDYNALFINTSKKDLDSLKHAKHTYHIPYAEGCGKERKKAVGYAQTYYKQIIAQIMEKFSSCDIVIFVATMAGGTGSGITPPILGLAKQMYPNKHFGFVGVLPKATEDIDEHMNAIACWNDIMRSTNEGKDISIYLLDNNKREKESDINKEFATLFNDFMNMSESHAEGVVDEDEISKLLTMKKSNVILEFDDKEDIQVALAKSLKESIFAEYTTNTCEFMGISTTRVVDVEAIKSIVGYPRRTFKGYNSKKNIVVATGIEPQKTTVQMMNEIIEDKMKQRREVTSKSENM

For `Nc1nc2c(ncn2[C@@H]2O[C@H](COP(=O)(O)OP(=O)(O)O)[C@@H](O)[C@H]2O)c(=O)[nH]1` [GDP], the “X-ray crystal structure, 2.4 Å” value (CbTubZ316) was “TubZ316 displays GDP at the nucleotide-binding pocket”.

For `Nc1nc2c(ncn2[C@@H]2O[C@H](COP(=O)(O)OP(=O)(O)OP(O)(O)=S)[C@@H](O)[C@H]2O)c(=O)[nH]1` [GTP-γ-S], the “HPLC of polymer-bound nucleotide” value (BtTubZ; filaments assembled with GTP-γ-S) was “nucleotide content of BtTubZ filaments assembled with GTP- γ-S and GTP”.

In the case of `Nc1nc2c(ncn2[C@@H]2O[C@H](COP(=O)(O)OP(=O)(O)OP(=O)(O)O)[C@@H](O)[C@H]2O)c(=O)[nH]1` [GTP], the “HPLC of polymer-bound nucleotide” value (BtTubZ; filaments assembled with GTP) is reported as “nucleotide content of BtTubZ filaments assembled with GTP- γ-S and GTP”.
